Patent publication US20070122849A1, “Rhesus monkey P2X7 purinergic receptor and uses thereof” (priority 2005, published 2007)

Assays:
[1] = tested on: rhP2X7 receptor; assay: rhP2X7 receptor activity in stably transfected HEK293 cells (calcium flux and change in membrane potential after agonist activation); assay type: cell-based, Macaca mulatta (Rhesus monkey); settings: recombinant rhP2X7 receptor
Procedure: RhP2X7 receptor activity in the stably transfected HEK293 cells was monitored by measuring calcium flux and change in membrane potential subsequent to activation with potent agonists (ATP, Bz-ATP). The membrane potential was measured using the following protocol.
Stably transfected recombinant HEK293 cells were plated into the wells of a 384-well Costar plates (25 μL/well) in growth medium (DMEM without pyruvate (Invitrogen-11965-084) with 10% FBS (Invitrogen 10082-139), 100 U/ml P/S (Invitrogen 15140-148), and 100 ug/mL hygromycin (Roche, 843555) and the plates incubated for 24 hours at 37° C., 5% CO2. Then, 25 μL of membrane potential buffer (Blue dye, Molecular Devices, Sunnyvale, Calif.) was added to the medium and the cells incubated for 30 minutes at 37° C., 5% CO2. Next, about 30 to 100 nL of either analyte or antagonist control or 10 μL agonist 3′-O-(4-benzoylbenzoyl)-ATP (Bz-ATP) (at an EC80) was added to the medium in separate wells of the plates. After incubating the plates for 30 minutes at 37° C., 5% CO2, fluorescence was read using a fluorometric plate reader (FLIPR, Molecular Devices). Data were analyzed using the formula EC50=using (Max−Min); Signal to Noise Ratio (S/B)=Max/Min; Z′ Factor=1−[3*SD of Max)+(3*SD of Min)/(mean of Max−mean of Min).
Calcium flux was measured using the following FLIPR Calcium Flux Assay protocol (Molecular Devices, Sunnyvale, Calif.). […]

[2] = tested on: rhP2X7 receptor; assay: calcium flux protocol for high throughput screen using cells that express the rhP2X7 receptor; assay type: cell-based, Macaca mulatta (Rhesus monkey); settings: agonist used in the example screening protocol; source of the value not stated
Procedure: The following is an example of a calcium flux protocol that can be used in a high throughput screen using cells that express the rhP2X7 receptor. The cells are grown to about 75-85% confluence, rinsed with DPBS (5.33 mM KCl, 0.44 mM KH2PO4, 0.3 mM Na2HPO4, 4 mM NaHCO3, 0.1% Glucose, 138 mM N-methyl glucamine), and dissociated with 0.05% trypsin. Then, about 20,000 cells are plated into multiple of the wells of multiwell plates in complete growth medium. The cells are incubated at 37° C. and 5% CO2 for about 20 to 24 hours. Next, about 20 μL FLUO-4 loading buffer (Invitrogen) is added to each of the wells and the cells incubated at RT for 60 minutes. Then, about 10 μL aliquots of each analyte to be tested (final concentration in DMSO about 0.1%) diluted in TR-40 quenching solution (Sigma #T2397) is added to a well containing cells. Controls include antagonists such as KN-62 and Ox-ATP and agonists such as Bz-ATP (at an EC80). The cells are incubated for about 10 minutes at RT.

EC50 [2] [µM]	Compound	EC50 [1] [µM]
–	Nc1ncnc2c1ncn2[C@@H]1O[C@H](COP(=O)(O)OP(=O)(O)OP(=O)(O)O)[C@@H](O)[C@H]1O [ATP]	~3000
–	Nc1ncnc2c1ncn2[C@@H]1O[C@H](COP(=O)(O)OP(=O)(O)OP(=O)(O)O)[C@@H](OC(=O)c2ccc(C(=O)c3ccccc3)cc2)[C@H]1O [Bz-ATP, 3′-O-(4-benzoylbenzoyl)-ATP]	~150
350	Nc1ncnc2c1ncn2[C@@H]1O[C@H](COP(=O)(O)CP(=O)(O)OP(=O)(O)O)[C@@H](O)[C@H]1O [a,b-methylene ATP]	–
